Patent US20230000813A1, “COMPOUND FOR THE TREATMENT OF BOVINE OR SWINE RESPIRATORY DISEASE” (Intervet Inc., priority 2016, published 2023)
Values after ≈ are worked out from the molar mass of the structure shown. Read-outs that look alike come from different tables or passages of the source.

What was measured:
Type in all cases: cell-based
[1] = tested on: Mannheimia haemolytica MH 10720 (154, BRD field isolate); assay: MIC, broth-microdilution (CLSI VET01-A4)
In short: (§1)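 Broth microdilution per CLSI VET01-A4 using doubling dilution series of test compound; results interpreted per CLSI VET01-S3. MIC recorded as lowest concentration giving no turbidity visible to the unaided eye.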

[2] = tested on: Mannheimia haemolytica MH 12587 (1071, BRD field isolate, macrolide-resistance: erm+, E+); assay: MIC, broth-microdilution (CLSI VET01-A4)
In short: as §1

[3] = tested on: Mannheimia haemolytica MH 6357 (M7/2, reference strain, cattle infection strain); assay: MIC, broth-microdilution (CLSI VET01-A4)
In short: as §1

[4] = tested on: Mannheimia haemolytica MH 6374 (ATCC 33396, reference strain); assay: MIC, broth-microdilution (CLSI VET01-A4)
In short: as §1

[5] = tested on: Pasteurella multocida PM 10775 (080130003051, BRD field isolate); assay: MIC, broth-microdilution (CLSI VET01-A4)
In short: as §1

[6] = tested on: Pasteurella multocida PM 12080 (IV102277-0093, BRD field isolate); assay: MIC, broth-microdilution (CLSI VET01-A4)
In short: as §1

[7] = tested on: Pasteurella multocida PM 6267 (P 2225 (L386), reference strain, mouse infection strain); assay: MIC, broth-microdilution (CLSI VET01-A4)
In short: as §1

[8] = tested on: Pasteurella multocida PM 6391 (ATCC 43137, reference strain); assay: MIC, broth-microdilution (CLSI VET01-A4); details: strain PM 6391
In short: as §1

[9] = tested on: Mannheimia haemolytica MH 13065 (XB0446-6003.9, BRD field isolate); assay: MIC, broth-microdilution (CLSI VET01-A4)
In short: (§2)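 MIC read by eye as lowest compound concentration without visible growth (no turbidity), interpreted per CLSI VET01-S3. Doubling-dilution broth-microdilution trays, run according to CLSI VET01-A4.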

[10] = tested on: Mannheimia haemolytica MH 13093 (XB0472-6014.1, BRD field isolate); assay: MIC, broth-microdilution (CLSI VET01-A4)
In short: as §2

[11] = tested on: Acinetobacter baumanii AB 15919 (IV369-2012, dermatitis field isolate); assay: MIC, broth-microdilution (CLSI VET01-A4); details: strain AB 15919
Procedure: (§3) The Minimum inhibitory concentrations (MIC) of compounds according to the invention were determined by the broth-microdilution method according to CLSI document VET01-A4.
(§4) Microdilution trays containing a doubling dilution series of the test compound were used for the tests.
(§5) The MIC results were interpreted according to the CLSI documents VET01-S3. The lowest concentration of compound at which no visible growth (i.e. no turbidity) detected by the unaided eye was recorded as the MIC.

[12] = tested on: Acinetobacter baumanii AB 16496 (ATCC 19606, reference strain); assay: MIC, broth-microdilution (CLSI VET01-A4); details: strain AB 16496
Procedure: as §3, §4, §5

[13] = tested on: Mannheimia haemolytica MH 12180 (KLI-02944, BRD field isolate); assay: MIC, broth-microdilution (CLSI VET01-A4); details: strain MH 12180
Procedure: as §3, §4, §5

[14] = tested on: Pasteurella multocida PM 14426 (0006-439, BRD field isolate, macrolide-resistant); assay: MIC, broth-microdilution (CLSI VET01-A4); details: strain PM 14426, macrolide-resistant
Procedure: as §3, §4, §5

[15] = tested on: Staphylococcus aureus SA 5816 (2139, mastitis field isolate); assay: MIC, broth-microdilution (CLSI VET01-A4); details: strain SA 5816
Procedure: as §3, §4, §5

[16] = tested on: Staphylococcus aureus SA 6114 (ATCC 29213, reference strain); assay: MIC, broth-microdilution (CLSI VET01-A4); details: strain SA 6114
Procedure: as §3, §4, §5

[17] = tested on: 20 isolates of Actinobacillus (A.) pleuropneumoniae; assay: MIC50/MIC90, broth-microdilution, European respiratory tract isolates
Procedure: (§6) The in vitro activity of compounds against 20 isolates of Actinobacillus (A.) pleuropneumoniae, 20 of Bordetella (B.) bronchiseptica, 20 of Histophilus (H.) somni, 40 of Mannheimia (M.) haemolytica and 40 of Pasteurella (P.) multocida collected in different European countries were determined. All bacteria were isolated from the respiratory tract of swine and cattle suffering from respiratory disease. All isolates were epidemiologically unrelated as specified by the different suppliers.
(§7) The minimum inhibitory concentrations (MIC) of compounds according to the invention were determined by the broth-microdilution method according to CLSI document VET01-A4.
(§8) Microdilution trays containing a doubling dilution series of the test compounds were used for the tests.
as §5

[18] = tested on: 20 isolates of Bordetella (B.) bronchiseptica; assay: as above
Procedure: as §6, §7, §8, §5

[19] = tested on: 20 isolates of Histophilus (H.) somni; assay: as above
Procedure: as §6, §7, §8, §5

[20] = tested on: 40 isolates of Mannheimia (M.) haemolytica; assay: as above
Procedure: as §6, §7, §8, §5

[21] = tested on: 40 isolates of Pasteurella (P.) multocida; assay: as above
Procedure: as §6, §7, §8, §5

[22] = tested on: 15 isolates of H. parasuis; assay: MIC50/MIC90, agar-dilution method (GC agar base); details: Haemophilus parasuis
Procedure: The in vitro activity of 3 representative compounds of this invention against 15 isolates of H. parasuis was determined. All strains were isolated from the respiratory tract of swine in different European countries The MICs for all isolates were determined by using the agar-dilution method according to CLSI document VET01-A4 [1]with the following modification: GC agar base was used instead of Mueller-Hinton agar base for the preparation of the agar-dilution plates. Results were interpreted according to the CLSI document VET01-S3.

**Q.** With `CC(C)(N)C(NC(=O)c1ccc(C#Cc2ccc(CNCc3ccncc3)cc2)cc1)C(=O)NO` (centres unmarked) [C. 320] as the molecule, how does the MIC ([1]; Mannheimia haemolytica MH 10720, read-out: MIC MH 10720) read?
**A.** 0.4 µM

**Q.** What about the MIC ([1]; strain MH 10720) of the same molecule?
**A.** 0.25 µg/mL

**Q.** What about the “MIC MH 12587” value ([2]; Mannheimia haemolytica MH 12587, macrolide-resistant) of the same molecule?
**A.** 1.6 µM (≈ 0.754 µg/mL)

**Q.** And the MIC ([2]; strain MH 12587, macrolide-resistant)?
**A.** 0.5 µg/mL (≈ 1.06 µM)

**Q.** And the MIC ([3]; Mannheimia haemolytica MH 6357, read-out: MIC MH 6357)?
**A.** 0.8 µM

**Q.** And the MIC ([3]; strain MH 6357)?
**A.** 0.5 µg/mL

**Q.** What about the MIC ([4]; Mannheimia haemolytica MH 6374, read-out: MIC MH 6374) of the same molecule?
**A.** 0.8 µM

**Q.** What about the MIC ([4]; strain MH 6374) of the same molecule?
**A.** 0.25 µg/mL

**Q.** What about the “MIC PM 10775” value ([5]; Pasteurella multocida PM 10775) of the same molecule?
**A.** <=0.1 μM

**Q.** And the MIC ([5]; strain PM 10775)?
**A.** ≤0.016 µg/mL

**Q.** What about the “MIC PM 12080” value ([6]; Pasteurella multocida PM 12080) of the same molecule?
**A.** <=0.1 μM

**Q.** What about the MIC ([6]; strain PM 12080) of the same molecule?
**A.** ≤0.016 µg/mL

**Q.** And the “MIC PM 6267” value ([7]; Pasteurella multocida PM 6267)?
**A.** <=0.1 μM

**Q.** And the MIC ([7]; strain PM 6267)?
**A.** ≤0.016 µg/mL

**Q.** And the MIC [8]?
**A.** 0.032 µg/mL (≈ 0.0679 µM)

**Q.** And the MIC [9]?
**A.** 0.8 µM (≈ 0.377 µg/mL)

**Q.** And the MIC [10]?
**A.** 1.6 µM (≈ 0.754 µg/mL)

**Q.** What about the MIC [11] of the same molecule?
**A.** 16 µg/mL (≈ 33.9 µM)

**Q.** What about the MIC [12] of the same molecule?
**A.** >16 µg/mL

**Q.** What about the MIC [13] of the same molecule?
**A.** 0.5 µg/mL (≈ 1.06 µM)

**Q.** What about the MIC [14] of the same molecule?
**A.** ≤0.016 µg/mL

**Q.** And the MIC [15]?
**A.** >16 µg/mL

**Q.** What about the MIC [16] of the same molecule?
**A.** >16 µg/mL

**Q.** What about the MIC50 [17] of the same molecule?
**A.** 0.5 µg/mL (≈ 1.06 µM)

**Q.** And the MIC90 [17]?
**A.** 0.5 µg/mL (≈ 1.06 µM)

**Q.** And the MIC50 [18]?
**A.** 2 µg/mL (≈ 4.24 µM)

**Q.** What about the MIC90 [18] of the same molecule?
**A.** 2 µg/mL (≈ 4.24 µM)

**Q.** What about the MIC50 [19] of the same molecule?
**A.** 0.063 µg/mL (≈ 0.134 µM)

**Q.** What about the MIC90 [19] of the same molecule?
**A.** 0.125 µg/mL (≈ 0.265 µM)

**Q.** What about the MIC50 [20] of the same molecule?
**A.** 0.5 µg/mL (≈ 1.06 µM)

**Q.** What about the MIC90 [20] of the same molecule?
**A.** 0.5 µg/mL (≈ 1.06 µM)

**Q.** What about the MIC50 [21] of the same molecule?
**A.** ≤0.016 µg/mL

**Q.** And the MIC90 [21]?
**A.** 0.032 µg/mL (≈ 0.0679 µM)

**Q.** What about the MIC50 [22] of the same molecule?
**A.** 2 µg/mL (≈ 4.24 µM)

**Q.** And the MIC90 [22]?
**A.** 4 µg/mL (≈ 8.48 µM)
